Experimental data from PMC10540603 (Biochemical and biophysical research communications, 2022).
Changes are numbered by the printed parent chain.

Legend:
CquiOrco = molecular target: T1, CquiOrco (Culex quinquefasciatus, UniProt Q309I4); assay: two-electrode voltage clamp, Xenopus oocytes; assay type: cell-based; conditions: agonist; coreceptor expressed alone; pH 7.6
T1 sequence (Q309I4 1-480): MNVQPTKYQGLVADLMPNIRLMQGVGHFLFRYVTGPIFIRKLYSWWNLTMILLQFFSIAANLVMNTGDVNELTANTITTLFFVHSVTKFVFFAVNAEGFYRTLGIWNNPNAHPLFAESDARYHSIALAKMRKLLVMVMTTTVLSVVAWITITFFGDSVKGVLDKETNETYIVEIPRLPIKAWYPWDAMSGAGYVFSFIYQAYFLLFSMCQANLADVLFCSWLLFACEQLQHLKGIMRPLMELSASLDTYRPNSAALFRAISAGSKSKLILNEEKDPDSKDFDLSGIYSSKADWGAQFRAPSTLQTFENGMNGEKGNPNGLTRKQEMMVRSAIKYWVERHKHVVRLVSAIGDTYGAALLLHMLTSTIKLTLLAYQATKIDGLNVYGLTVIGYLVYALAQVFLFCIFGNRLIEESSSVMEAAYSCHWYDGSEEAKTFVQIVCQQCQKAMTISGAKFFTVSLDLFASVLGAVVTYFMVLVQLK

CquiOR32/CquiOrco = molecular target: T2, CquiOR32/CquiOrco (Culex quinquefasciatus, UniProt A0A0K0KUF8); assay: two-electrode voltage clamp, Xenopus oocytes; assay type: cell-based; conditions: 1 mM source dose, -80 mV, pH 7.6
T2 sequence (A0A0K0KUF8 1-397): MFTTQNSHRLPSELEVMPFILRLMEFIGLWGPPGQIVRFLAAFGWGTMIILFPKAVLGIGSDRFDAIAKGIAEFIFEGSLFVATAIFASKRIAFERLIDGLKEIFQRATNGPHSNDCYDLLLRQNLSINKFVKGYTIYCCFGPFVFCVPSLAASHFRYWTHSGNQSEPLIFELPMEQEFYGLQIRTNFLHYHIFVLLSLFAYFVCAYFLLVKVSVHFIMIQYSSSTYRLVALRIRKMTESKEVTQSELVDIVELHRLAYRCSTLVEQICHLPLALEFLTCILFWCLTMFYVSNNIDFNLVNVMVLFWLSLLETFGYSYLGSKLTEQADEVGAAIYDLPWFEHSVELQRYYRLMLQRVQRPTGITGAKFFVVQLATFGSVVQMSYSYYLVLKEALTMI
T2 sequence (UPI0018E3CDA7 1-480 partner): T1 sequence (Q309I4 1-480) with K267E, V399I

## CCn1c(SCC(=O)Nc2ccc(C(C)C)cc2)nnc1-c1ccncc1 [OLC12, 2-{[4-Ethyl-5-(4-pyridinyl)-4H-1,2,4-triazol-3-yl]sulfanyl}-N-(4-isopropylphenyl)acetamide]
CquiOrco
  two-electrode voltage clamp, Xenopus oocytes: CquiOrco-expressing oocytes generated inward currents when challenged with OLC12

## CC12CCC(C1)C(C)(C)C2=O (stereo not drawn) [fenchone]
CquiOR32/CquiOrco; inhibitor, outward currents
  two-electrode voltage clamp, Xenopus oocytes: more prominent than the outward currents elicited by fenchone and eucalyptol

## COC(=O)c1ccccc1O [methyl salicylate]
CquiOR32/CquiOrco; agonist, inward currents
  two-electrode voltage clamp, Xenopus oocytes: Methyl salicylate-elicited inward currents recorded with CquiOR32/CquiOrco-expressing oocytes
